From patent US9273058B2 (BRISTOL-MYERS SQUIBB COMPANY, priority 2013, dated 2016) come the findings set out here.

pIC50: −log10 of the molar value. Like-named read-outs stand apart in the source and are kept apart here.

The target in one assay is CK1ε (Homo sapiens, UniProt P49674). Briefly: CK1ε kinase assay (Caliper LabChip electrophoretic separation of fluoresceinated peptide substrate and product). It counts as biochemical. The settings on record: 200 pM CK1ε, 50 μM ATP, 1.5 μM peptide, 22 hours at room temperature. In a few lines: (§1)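 Each reaction was incubated 22 hours at room temperature and terminated with EDTA. Read-out was microfluidic electrophoretic separation of fluoresceinated substrate and phospho-product.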
CK1ε, sequence (P49674 whole entry): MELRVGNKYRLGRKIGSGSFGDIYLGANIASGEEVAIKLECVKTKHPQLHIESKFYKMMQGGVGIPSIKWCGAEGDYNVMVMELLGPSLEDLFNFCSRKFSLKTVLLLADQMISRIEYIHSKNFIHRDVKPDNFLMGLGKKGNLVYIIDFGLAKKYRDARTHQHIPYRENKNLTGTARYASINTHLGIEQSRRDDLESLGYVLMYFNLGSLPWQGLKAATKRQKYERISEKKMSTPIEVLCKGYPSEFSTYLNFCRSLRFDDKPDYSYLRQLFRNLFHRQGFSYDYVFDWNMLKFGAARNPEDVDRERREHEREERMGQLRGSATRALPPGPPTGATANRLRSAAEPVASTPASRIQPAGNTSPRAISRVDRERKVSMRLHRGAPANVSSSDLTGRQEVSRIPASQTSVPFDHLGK

The target in the next assay is CK1δ (Homo sapiens, UniProt P48730). Briefly: CK1δ kinase assay (Caliper LabChip electrophoretic separation of fluoresceinated peptide substrate and product). Format: biochemical. As to conditions: 200 pM CK1δ, 50 μM ATP, 1.5 μM peptide, 22 hours at room temperature. In a few lines: as §1
CK1δ, sequence (P48730 whole entry): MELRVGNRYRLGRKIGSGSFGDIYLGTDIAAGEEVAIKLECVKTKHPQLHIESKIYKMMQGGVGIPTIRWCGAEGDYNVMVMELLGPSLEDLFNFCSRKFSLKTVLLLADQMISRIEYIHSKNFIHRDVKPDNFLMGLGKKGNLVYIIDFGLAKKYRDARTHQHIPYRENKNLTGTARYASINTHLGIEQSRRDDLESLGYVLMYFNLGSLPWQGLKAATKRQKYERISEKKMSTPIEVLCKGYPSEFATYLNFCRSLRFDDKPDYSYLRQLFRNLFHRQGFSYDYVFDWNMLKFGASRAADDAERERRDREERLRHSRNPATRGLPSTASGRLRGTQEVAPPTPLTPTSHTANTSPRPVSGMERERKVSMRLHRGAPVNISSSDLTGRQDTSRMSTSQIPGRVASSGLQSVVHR

For `NC(=O)c1c(-c2cccc(F)c2)nn2c1CN(C(=O)Nc1ccc(F)cc1Cl)CC2` [Compound 32, N^5-(2-Chloro-4-fluorophenyl)-2-(3-fluorophenyl)-6,7-dihydropyrazolo[1,5-a]pyrazine-3,5(4H)-dicarboxamide], the pIC50 at CK1ε (read-out: CK1ε IC50 range) and on CK1δ (read-out: CK1δ IC50 range) was 7.00 to 8.00 throughout.
With `NC(=O)c1c(-c2cccc(F)c2)nn2c1CN(C(=O)Nc1c(F)cc(F)cc1F)CC2` [Compound 40, 2-(3-Fluorophenyl)-N^5-(2,4,6-trifluorophenyl)-6,7-dihydropyrazolo[1,5-a]pyrazine-3,5(4H)dicarboxamide], the pIC50 is 5.70 to 7.00 at CK1ε (read-out: CK1ε IC50 range) and 7.00 to 8.00 on CK1δ (read-out: CK1δ IC50 range).
As to `NC(=O)c1c(-c2cccc(F)c2)nn2c1CN(C(=O)NCCc1ccc(F)cc1)CC2` [Compound 42, N^5-(4-Fluorophenethyl)-2-(3-fluorophenyl)-6,7-dihydropyrazolo[1,5-a]pyrazine-3,5(4H)-dicarboxamide], the pIC50 at CK1ε (read-out: CK1ε IC50 range) was 5.70 to 7.00; at CK1δ (read-out: CK1δ IC50 range), 7.00 to 8.00.
For the compound `NC(=O)c1c(-c2cccc(F)c2)nn2c1CN(C(=O)Nc1ccc(Cl)cc1Cl)CC2` [Compound 43, N^5-(2,4-Dichlorophenyl)-2-(3-fluorophenyl)-6,7-dihydropyrazolo[1,5-a]pyrazine-3,5(4H)-dicarboxamide], the pIC50 on CK1ε (read-out: CK1ε IC50 range) and at CK1δ (read-out: CK1δ IC50 range) was 7.00 to 8.00 in each case.
Consider `COc1ccc(CCNC(=O)N2CCn3nc(-c4cccc(F)c4)c(C(N)=O)c3C2)cc1` [Compound 47, 2-(3-Fluorophenyl)-N^5-(4-methoxyphenethyl)-6,7-dihydropyrazolo[1,5-a]pyrazine-3,5(4H)-dicarboxamide], for which the pIC50 on CK1ε (read-out: CK1ε IC50 range) is 5.70 to 7.00; on CK1δ (read-out: CK1δ IC50 range), 7.00 to 8.00.
In the case of `NC(=O)c1c(-c2cccc(F)c2)nn2c1CN(C(=O)Nc1ccccc1C(F)(F)F)CC2` [Compound 48, 2-(3-Fluorophenyl)-N^5-(2-(trifluoromethyl)phenyl)-6,7-dihydropyrazolo[1,5-a]pyrazine-3,5(4H)-dicarboxamide], the values for the pIC50 on CK1ε (read-out: CK1ε IC50 range) and at CK1δ (read-out: CK1δ IC50 range) were 5.70 to 7.00 and 7.00 to 8.00, respectively.
Turning to `NC(=O)c1c(-c2cccc(F)c2)nn2c1CN(C(=O)Nc1cccc3ccccc13)CC2` [Compound 52, 2-(3-Fluorophenyl)-N^5-(naphthalen-1-yl)-6,7-dihydropyrazolo[1,5-a]pyrazine-3,5(4H)-dicarboxamide], the pIC50 on CK1ε (read-out: CK1ε IC50 range) and at CK1δ (read-out: CK1δ IC50 range) was 7.00 to 8.00 in each case.
As for `N#Cc1cccc(NC(=O)N2CCn3nc(-c4cccc(F)c4)c(C(N)=O)c3C2)c1` [Compound 54, N^5-(3-Cyanophenyl)-2-(3-fluorophenyl)-6,7-dihydropyrazolo[1,5-a]pyrazine-3,5(4H)-dicarboxamide], the pIC50 at CK1ε (read-out: CK1ε IC50 range) and on CK1δ (read-out: CK1δ IC50 range) was 8.00 to 11.00 each time.
`NC(=O)c1c(-c2cccc(F)c2)nn2c1CN(C(=O)Nc1ccc(Cl)cc1C(F)(F)F)CC2` [Compound 57, N^5-(4-Chloro-2-(trifluoromethyl)phenyl)-2-(3-fluorophenyl)-6,7-dihydropyrazolo[1,5-a]pyrazine-3,5(4H)-dicarboxamide]: the pIC50 on CK1ε (read-out: CK1ε IC50 range) is 5.70 to 7.00; at CK1δ (read-out: CK1δ IC50 range), 7.00 to 8.00.
Turning to `N#Cc1ccc(NC(=O)N2CCn3nc(-c4cccc(F)c4)c(C(N)=O)c3C2)cc1` [Compound 61, N^5-(4-Cyanophenyl)-2-(3-fluorophenyl)-6,7-dihydropyrazolo[1,5-a]pyrazine-3,5(4H)-dicarboxamide], the pIC50 was 8.30 at CK1ε (read-out: CK1ε), 8.00 to 11.00 at CK1ε (read-out: CK1ε IC50 range), 8.59 on CK1δ (read-out: CK1δ) and 8.00 to 11.00 on CK1δ (read-out: CK1δ IC50 range).
As for `NC(=O)c1c(-c2cccc(F)c2)nn2c1CN(C(=O)Nc1c(Cl)cccc1C(F)(F)F)CC2` [Compound 65, N^5-(2-Chloro-6-(trifluoromethyl)phenyl)-2-(3-fluorophenyl)-6,7-dihydropyrazolo[1,5-a]pyrazine-3,5(4H)-dicarboxamide], the pIC50 at CK1ε (read-out: CK1ε IC50 range) and at CK1δ (read-out: CK1δ IC50 range) was 5.70 to 7.00 each time.
With `COc1cc(NC(=O)N2CCn3nc(-c4cccc(F)c4)c(C(N)=O)c3C2)ncn1` [Compound 75, 2-(3-Fluorophenyl)-N^5-(6-methoxypyrimidin-4-yl)-6,7-dihydropyrazolo[1,5-a]pyrazine-3,5(4H)-dicarboxamide], the pIC50 on CK1ε (read-out: CK1ε IC50 range) and at CK1δ (read-out: CK1δ IC50 range) was 7.00 to 8.00 throughout.
Take `Cc1ccc(NC(=O)N2CCn3nc(-c4cccc(F)c4)c(C(N)=O)c3C2)nn1` [Compound 83, 2-(3-Fluorophenyl)-N^5-(6-methylpyridazin-3-yl)-6,7-dihydropyrazolo[1,5-a]pyrazine-3,5(4H)-dicarboxamide]: the pIC50 on CK1ε (read-out: CK1ε IC50 range) was 7.00 to 8.00; on CK1δ (read-out: CK1δ IC50 range), 5.70 to 7.00.
With `NC(=O)c1c(-c2cccc(F)c2)nn2c1CN(C(=O)Nc1ccc(O)nc1)CC2` [Compound 88, 2-(3-Fluorophenyl)-N^5-(6-hydroxypyridin-3-yl)-6,7-dihydropyrazolo[1,5-a]pyrazine-3,5(4H)-dicarboxamide], the pIC50 on CK1ε (read-out: CK1ε IC50 range) and on CK1δ (read-out: CK1δ IC50 range) was 7.00 to 8.00 throughout.
`NC(=O)c1c(-c2cccc(F)c2)nn2c1CN(C(=O)Nc1cccnn1)CC2` [Compound 91, 2-(3-Fluorophenyl)-N^5-(pyridazin-3-yl)-6,7-dihydropyrazolo[1,5-a]pyrazine-3,5(4H)-dicarboxamide]: the figures for the pIC50 at CK1ε (read-out: CK1ε IC50 range) and at CK1δ (read-out: CK1δ IC50 range) were 5.70 to 7.00 and 7.00 to 8.00, respectively.
Consider `NC(=O)c1c(-c2cccc(F)c2)nn2c1CN(C(=O)Nc1ccncc1)CC2` [Compound 92, 2-(3-Fluorophenyl)-N^5-(pyridin-4-yl)-6,7-dihydropyrazolo[1,5-a]pyrazine-3,5(4H)-dicarboxamide], for which the pIC50 on CK1ε (read-out: CK1ε IC50 range) was 5.70 to 7.00; at CK1δ (read-out: CK1δ), 6.35; at CK1δ (read-out: CK1δ IC50 range), 5.70 to 7.00.
As to `CS(=O)(=O)c1cccc(NC(=O)N2CCn3nc(-c4cccc(F)c4)c(C(N)=O)c3C2)c1` [Compound 93, 2-(3-Fluorophenyl)-N^5-(3-(methylsulfonyl)phenyl)-6,7-dihydropyrazolo[1,5-a]pyrazine-3,5(4H)-dicarboxamide], the pIC50 at CK1ε (read-out: CK1ε IC50 range) and on CK1δ (read-out: CK1δ IC50 range) was 8.00 to 11.00 throughout.
Consider `Cn1nccc1NC(=O)N1CCn2nc(-c3cccc(F)c3)c(C(N)=O)c2C1` [Compound 96, 2-(3-Fluorophenyl)-N^5-(1-methyl-1H-pyrazol-5-yl)-6,7-dihydropyrazolo[1,5-a]pyrazine-3,5(4H)-dicarboxamide], for which the pIC50 at CK1ε (read-out: CK1ε IC50 range) and at CK1δ (read-out: CK1δ IC50 range) was 7.00 to 8.00 throughout.
Turning to `NC(=O)c1c(-c2cccc(F)c2)nn2c1CN(C(=O)NC1CCN(CCC(F)(F)F)CC1)CC2` [Compound 103, 2-(3-Fluorophenyl)-N^5-(1-(3,3,3-trifluoropropyl)piperidin-4-yl)-6,7-dihydropyrazolo[1,5-a]pyrazine-3,5(4H)-dicarboxamide], the pIC50 on CK1ε (read-out: CK1ε) is 6.27; on CK1ε (read-out: CK1ε IC50 range), 5.70 to 7.00; on CK1δ (read-out: CK1δ), 7.15.
As to `CC(C)(C)NC(=O)N1CCn2nc(-c3ccc(F)c(Cl)c3)c(C(N)=O)c2C1` [Compound 104], the pIC50 on CK1ε (read-out: CK1ε) was 8.89; on CK1ε (read-out: CK1ε IC50 range), 8.00 to 11.00; at CK1δ (read-out: CK1δ), 9.15; at CK1δ (read-out: CK1δ IC50 range), 8.00 to 11.00.
Consider `CC(C)(C)NC(=O)N1CCn2nc(-c3ccc(F)c(F)c3)c(C(N)=O)c2C1` [Compound 106, N^5-(tert-Butyl)-2-(3,4-difluorophenyl)-6,7-dihydropyrazolo[1,5-a] pyrazine-3,5(4H)-dicarboxamide], for which the pIC50 on CK1ε (read-out: CK1ε) was 7.53; on CK1ε (read-out: CK1ε IC50 range) it was 7.00 to 8.00; on CK1δ (read-out: CK1δ) it was 8.06; at CK1δ (read-out: CK1δ IC50 range), 8.00 to 11.00.
